Experimental data: patent US11844794B2, “Pharmaceutical compositions” (ADEPTIO PHARMACEUTICALS LIMITED, priority 2017, dated 2023)

What was measured:
[1] = solid form stability in slurry / polymorphism by XRPD; type: physicochemical
[2] = thermal gravimetric analysis (TGA) / thermal stability
Experimental: Differential scanning calorimetry (DSC) was carried out on the sample “as is” using a Mettler DSC1 instrument. The sample was weighed I an aluminium pan, covered with a pierced lid, and then crimped and analysed from 30-300° C. at 10° C./minute.
Thermal gravimetric analysis was performed on the sample “as is” using a Mettler 851^e TGA instrument. The sample was weighed in an alumina crucible and analysed from 30-300° C. at 10° C./minute.

[3] = plasma concentrations after oral dosing to human volunteers; type: in vivo
Experimental: (+)-α-Dihydrotetrabenazine in amounts was administered by oral dosing to five human volunteers. In four of the volunteers, blood sample were taken at 30, 60, 120 and 180 minutes after drug administration. Blood samples were not taken from the fifth volunteer. At 60 minutes after drug administration, PET scans were initiated and these were stopped at 120 minutes after drug administration. The experiment was carried out at dosages of 7.5 mg, 15 mg and 22.5 mg.

[4] = test system: non-amphetamine induced rats; test: locomotor activity in rats without amphetamine induction, open field test; type: in vivo, rat; settings: Study 3, non-induced rats, 2.5 mg/kg or 5 mg/kg
Experimental: All animal experiments were carried out according to the National Institute of Health (NIH) guidelines for the care and use of laboratory animals, and approved by the National Animal Experiment Board, Finland. Male CD (Charles River Laboratories, Germany) at weight range of 200-250 g (165-200 g upon arrival) were used for the experiments. Animals were housed at a standard temperature (22±1° C.) and in a light-controlled environment (lights on from 7 am to 8 pm) with ad libitum access to food and water.
Locomotor activity of the rats was tested in open field arena. The open field test was performed during the rat light cycle and under a normal lighting evenly distributed to the test chambers. The paths of the rats were recorded by activity monitor (Med. Associates Inc.).
Dosing the vehicle, vehicle-amphetamine, (+)-α-DHTBZ or risperidone was done prior to LMA test. The rats were placed in the centre of the arena, and the path was recorded for 60 minutes.
Animals were grouped as follows: • Group 1: 10 rats treated with Vehicle • Group 2: 10 rats treated with (+)-α-DHTBZ 2.5 mg/kg • Group 3: 10 rats treated with (+)-α-DHTBZ 5 mg/kg • Group 4: 10 rats treated with risperidone 1 mg/kg

VMAT2 = target: T1, VMAT2 (Homo sapiens, UniProt Q05940); test: % VMAT2 blocking by PET scan in human volunteers; type: in vivo
T1 construct: from tissue; host or cells: living human volunteers (in vivo PET scan)
Description: Complete blocking of the VMAT2 proteins is considered undesirable as this can lead to unwanted side effects, such as Parkinsonism. […] The levels of VMAT2 blocking can be determined by competitive binding studies using Positron Emission Tomography (PET). By co-administering a radioactive ligand with the compound of interest at various concentrations, the proportion of binding sites occupied can be determined (see for example, Matthews et al., “Positron emission tomography molecular imaging for drug development”, Br. J. Clin. Pharmacol., 73:2, 175-186).
In four of the volunteers, blood sample were taken at 30, 60, 120 and 180 minutes after drug administration. Blood samples were not taken from the fifth volunteer. At 60 minutes after drug administration, PET scans were initiated and these were stopped at 120 minutes after drug administration.
The experiment was carried out at dosages of 7.5 mg, 15 mg and 22.5 mg.

T1 sequence (Q05940 whole entry): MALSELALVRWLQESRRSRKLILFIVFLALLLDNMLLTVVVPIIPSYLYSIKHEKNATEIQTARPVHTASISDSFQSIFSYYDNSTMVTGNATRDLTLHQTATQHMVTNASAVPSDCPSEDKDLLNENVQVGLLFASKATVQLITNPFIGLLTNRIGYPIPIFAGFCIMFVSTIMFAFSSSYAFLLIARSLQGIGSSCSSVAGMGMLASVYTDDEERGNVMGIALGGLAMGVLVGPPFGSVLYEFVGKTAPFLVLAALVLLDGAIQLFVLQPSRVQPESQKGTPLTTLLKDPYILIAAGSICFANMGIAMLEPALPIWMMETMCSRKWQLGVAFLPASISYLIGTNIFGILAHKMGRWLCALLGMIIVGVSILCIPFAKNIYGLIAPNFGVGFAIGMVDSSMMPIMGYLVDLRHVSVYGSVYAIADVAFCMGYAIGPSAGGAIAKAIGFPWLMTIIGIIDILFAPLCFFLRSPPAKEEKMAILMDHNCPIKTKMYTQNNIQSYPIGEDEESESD

SMILES: COc1cc2c(cc1OC)[C@H]1C[C@@H](O)[C@H](CC(C)C)CN1CC2.O=C(O)CCC(=O)O [(+)-α-dihydrotetrabenazine succinate]
- polymorphism [1]: no evidence of polymorphism
- TGA weight loss ([2]; below 150° C.): No weight loss
- thermal stability ([2]; from DSC and TGA): good thermal stability

SMILES: COc1cc2c(cc1OC)[C@H]1C[C@@H](O)[C@H](CC(C)C)CN1CC2 [(+)-α-dihydrotetrabenazine, (2R,3R,11bR)-3-isobutyl-9,10-dimethoxy-1,3,4,6,7,11b-hexahydro-2H-pyrido[2,1,a]isoquinolin-2-01]
- concentration at 1 h ([3]; human, plasma, subject 1 (112 kg), 7.5 mg oral): 0.94 ng/mL
- concentration at 1 h ([3]; human, plasma, subject 1 (112 kg), 22.5 mg oral): 18 ng/mL
- concentration at 2 h ([3]; human, plasma, subject 2 (76 kg), 7.5 mg oral): 14 ng/mL
- concentration at 0.5 h ([3]; human, plasma, subject 3 (129 kg), 15 mg oral, 0.5 h): 1.2 ng/mL
- concentration at 2 h ([3]; human, plasma, subject 3 (129 kg), 15 mg oral): 12 ng/mL
- plasma concentration of (+)-α-dihydrotetrabenazine ([3]; subject 1 (112 kg), 7.5 mg oral, 0.5 h, BLQ = below level of quantitation): BLQ
- stereotypic behaviour versus vehicle [4]: comparable
- total movement versus vehicle [4]: comparable
- % VMAT2 blocking (VMAT2; heavier individuals, doses as low as 7.5 mg): at least 50%
- % VMAT2 blocking (VMAT2; subject 1 (112 kg), 7.5 mg oral, PET 60-120 minutes after administration): 54%
- % VMAT2 blocking (VMAT2; subject 1 (112 kg), 15 mg oral, PET 60-120 minutes after administration): 73%
- % VMAT2 blocking (VMAT2; subject 1 (112 kg), 22.5 mg oral, PET 60-120 minutes after administration): 75%
- % VMAT2 blocking (VMAT2; subject 2 (76 kg), 7.5 mg oral, PET 60-120 minutes after administration): 73%
- % VMAT2 blocking (VMAT2; subject 2 (76 kg), 15 mg oral, PET 60-120 minutes after administration): 83%
- % VMAT2 blocking (VMAT2; subject 2 (76 kg), 22.5 mg oral, PET 60-120 minutes after administration): 82%
- % VMAT2 blocking (VMAT2; subject 3 (129 kg), 7.5 mg oral, PET 60-120 minutes after administration): 62%
- % VMAT2 blocking (VMAT2; subject 3 (129 kg), 15 mg oral, PET 60-120 minutes after administration): 69%
- % VMAT2 blocking (VMAT2; subject 3 (129 kg), 22.5 mg oral, PET 60-120 minutes after administration): 74%
- % VMAT2 blocking (VMAT2; subject 4 (59 kg), 7.5 mg oral, PET 60-120 minutes after administration): 84%
- % VMAT2 blocking (VMAT2; subject 4 (59 kg), 15 mg oral, PET 60-120 minutes after administration): 89%
- % VMAT2 blocking (VMAT2; subject 5 (91 kg), 7.5 mg oral, PET 60-120 minutes after administration): 73%
- % VMAT2 blocking (VMAT2; subject 5 (91 kg), 15 mg oral, PET 60-120 minutes after administration): 79%
- % VMAT2 blocking (VMAT2; subject 5 (91 kg), 22.5 mg oral, PET 60-120 minutes after administration): 82%
